Reference: US10519101B2, “Trans-cyclooctene amino and hydroxy acids and their use in multiple cycloaddition reactions for labeling of molecules” (EUROPEAN MOLECULAR BIOLOGY LABORATORY, priority 2014, dated 2019)
Entries after “also recorded” stand apart in the source; their conditions may differ.

Legend:
tRNA^Pyl/PylRS^AF = target: T1, tRNA^Pyl/PylRS^AF (Methanosarcina mazei, UniProt Q8PWY1, Y306A/Y384F); assay: Recombinant expression of GFP^TAG→UAA in E. coli (amber suppression, UAA incorporation); assay type: cell-based; details: for protein yields / incorporation rate compared with compound 2: E. coli, 1 mM UAA, GFP^Y39TAG; for incorporation rate compared with compound 2: FIG. 12; for expression yield of GFP^TAG→UAA (Coomassie SDS-PAGE): compared with TCO
T1 construct: expressed in transfected cells; host or cells: E. coli Top10 (Invitrogen), co-transformed with pEvolv tRNA^Pyl/PylRS^AF and pBAD GFP^Y39TAG

HEK293T cells = assay: Pulse-chase dual-color labeling of insulin receptor IR^TAG; assay type: cell-based
Experimental: For insulin receptor experiments, HEK293T cells were maintained in Dulbecco's Modified Eagle's Medium—DMEM (high glucose—4.5 g/l) supplemented with 10% FBS (Sigma), 1% L-glutamine (Invitrogen, Palo Alto, USA) and 1% Pen-Strep (Invitrogen) in a 5% CO2 atmosphere at 37° C. Cells were passaged every 2-3 days up to 15-20 passages. For microscopy, cells were seeded on 4-well chambered Lab-Tek #1.0 borosilicate coverglass (ThermoFisher, Ma USA) 15-24 h prior to transfections. Transfections were performed with JetPrime reagent (PegLab, Erlangen, Germany) according to the manufacturer's recommendations. In short, for double-transfections with IR and tRNA^Pyl/PylRS^AF vectors we used plasmids in 1:1 ratio keeping total amount of DNA at 1 μg. UAAs were added after the transfections in two pulses (see FIG. 2a). UAAs were dissolved in DMSO (250 mM stock of PrK; 100 mM stock of TCO*) or 20% formic-acid DMSO (500 mM stock of BCN; 250 mM stock of SCO). Each UAA was used at a final concentration of 250 μM. After the 2nd UAA pulse, cells were rinsed with fresh medium and kept overnight in DMEM.
In the morning following transfections, medium was exchanged to serum-free high glucose DMEM […], in which all the subsequent washing and labeling steps were also performed. The transfected cells were then labeled according to the following protocols. […]

[1] = FRET assay of labeling kinetics of GFP^TAG→UAA with Me-Tet-Cy3; details: tested experimental conditions of the FRET assay; listed as SCO
Experimental: For observation of labeling kinetics, GFP^TAG→UAA was expressed with 1-5 (for structures of UAAs see FIG. 1a). E. coli lysate was adjusted to a final GFP concentration of 200 nM based on absorbance spectra. H-Tet-Atto532 7 or Me-Tet-Cy3 8 (see FIG. 4), respectively, were added to a final concentration of 2 μM and fluorescence spectra (excitation at λ=450 nm, emission λ=470-650 nm) were recorded at different time points. The experiments were carried out in a total volume of 2 ml and continuous stirring. 1 mM stocks of the dyes in DMSO were used. Successful labeling of GFP^TAG→UAA was monitored by Foerster resonance energy transfer (FRET) from the GFP-chromophore (serving as a Donor, D) to the synthetic fluorophore (Acceptor, A) when covalently attached. In the individual spectra this is visible by a decrease of GFP-fluorescence (around λ=503-506 nm) and a simultaneous increase of Atto532- (λ=551 nm) or Cy3-fluorescence (λ=563 nm), respectively, over time (shown exemplarily for GFP^TAG→3 (TCO*) in the left panel of FIG. 5). […] Note that time point “0 min” is defined as the time point about 15 s after pipetting the dye to the protein solution. […]

[2] = Stability of trans-cyclooctenyl isomers against thiols by 1H-NMR; assay type: physicochemical; details: two equivalents of cysteamine, 60° C., ten days (240 h)
Experimental: In order to test for stability against thiols, UAAs 2-4 were separately combined with two equivalents of cysteamine hydrochloride in dPBS/dioxane-d8 (v/v 1:1), NMR tubes were tightly sealed, and incubated at rt, 37° C., or 60° C. ^1H-NMR spectra were measured after 24 h of incubation and later time points (in case of 3). […] For all three trans-cyclooctene-containing UAAs, conversion of the trans-cyclooctenyl-form to its corresponding cis-cyclooctenyl-form was observed (FIG. 8b). […] These numbers were obtained by comparing the integrals for the double bond protons and the —CHO— protons (if possible/applicable) before and after the heat treatment as it was done before by others for similar compounds ((a) B. R. Varga, M. Kallay, K. Hegyi, S. Beni, P. Kele, Chemistry 2012, 18, 822-828; b) R. van Geel, G. J. Pruijn, F. L. van Delft, W. C. Boelens, Bioconjugate chemistry 2012, 23, 392-398; J. Yang, J. Seckute, C. M. Cole, N. K. Devaraj, Angew Chem Int Ed Engl 2012, 51, 7476-7479). Observations at different temperatures were consistent with the expectation that the higher the temperature, the faster/easier the isomerization. Isomerization to the cis-form continued in samples kept at rt or 37° C. after 24 h (data not shown).

[3] = Stability of UAAs by 1H-NMR without thiols; assay type: physicochemical; details: dPBS (pH 7.4)/dioxane-d8 (v/v 1:1); rt, 37° C., 60° C.; 72 h
Experimental: Therefore, 0.1 M NaOH (for E. coli cells) and DMSO (for mammalian cells) are well suited solvents for the preparation of stock solutions for biological experiments. However, stock solutions were stored at −20° C. and thaw 30 min before usage.
Taking the properties of the purified compounds into account, these conditions resemble the nearest physiological conditions possible, as they prevail in biological experiments (living cells, aqueous buffered solutions of proteins) ((a) B. R. Varga, M. Kallay, K. Hegyi, S. Beni, P. Kele, Chemistry 2012, 18, 822-828; b) R. van Geel, G. J. Pruijn, F. L. van Delft, W. C. Boelens, Bioconjugate chemistry 2012, 23, 392-398).

[4] = Long time stability of the covalent bond in labeled proteins (FRET); details: labeled with Me-Tet-Cy3, excess filtered off, 4 h to 76 h
Experimental: To proof the stability of the formed covalent bonds between TCO* and the dye-Tet in a SPIEDAC reaction, long time FRET experiments were carried out. Basically, the same FRET assay as described above was used to test whether the fluorophores stays covalently attached to the protein or not over a period of 36 h. 200 nM GFP^TAG→3 were separately reacted with 2 μM Me-Tet-Cy3 at room temperature (rt) and the ratio between D and A fluorophore was followed over time.
In another experiment, Ni-NTA-purified GFP^TAG→UAA (1-4) was labeled with Me-Tet-Cy3 (2 h, 37° C.). Excess Me-Tet-Cy3 was filtered off (˜2 h). 200 nM labeled GFP^TAG>UAA+Cy3 (with 1-4) were followed over time by FRET as described above. Note that the first data point was taken approximately 4 h after adding the tetrazine to the proteins. No significant changes between the FRET ratio measured after 4 h and after 76 h were observed (FIG. 7).

[5] = 1H-NMR assay of orthogonality of seSPIEDAC and SPIEDAC reactions; assay type: physicochemical; details: 5 mm dienophile, 10 mm tetrazine, DMSO-d6, 10 min at room temperature
Experimental: Stock solutions of the dienophiles in DMSO-d6 with a final concentration of 10 mm were prepared. A 20 mm stock of the formic acid salt of (4-(6-methyl-1,2,4,5-tetrazine-3-yl)phenyl)methanamine (termed as methyl tetrazine or Me-Tet-NH2) in DMSO-d6 was prepared, too. As control experiment, either the dienophile or the diene (Me-Tet-NH2) were mixed with DMSO-d6 1:1 (v/v; 760 μl total volume) to yield a final concentration of 5 mm or 10 mm, respectively, in the NMR tube. To confirm whether a dienophile reacts with the diene (Me-Tet-NH2) or not, the corresponding stocks were mixed 1:1 (v/v; 760 μl total volume) to yield a final concentration of 5 mm of the dienophile and 10 mm of the diene in the NMR tube. The samples were incubated for 10 min at room temperature before analyzed by ^1H-NMR.

T1 sequence (Q8PWY1 whole entry Y306A/Y384F): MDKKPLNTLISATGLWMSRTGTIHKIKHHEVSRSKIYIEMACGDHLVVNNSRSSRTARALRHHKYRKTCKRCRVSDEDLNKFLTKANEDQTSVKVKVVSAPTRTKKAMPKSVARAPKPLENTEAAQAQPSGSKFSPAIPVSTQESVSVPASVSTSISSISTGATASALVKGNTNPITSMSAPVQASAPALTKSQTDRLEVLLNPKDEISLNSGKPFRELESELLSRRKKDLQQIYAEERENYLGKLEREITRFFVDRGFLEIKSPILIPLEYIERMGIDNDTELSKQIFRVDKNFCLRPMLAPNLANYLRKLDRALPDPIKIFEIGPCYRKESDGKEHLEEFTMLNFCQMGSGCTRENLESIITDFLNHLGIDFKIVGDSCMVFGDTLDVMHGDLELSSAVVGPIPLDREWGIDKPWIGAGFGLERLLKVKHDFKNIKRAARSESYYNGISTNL

| Structure (SMILES) | protein yields (tRNA^Pyl/PylRS^AF) [mg/L] | incorporation rate compared with compound 2 (tRNA^Pyl/PylRS^AF) | expression yield of GFP^TAG→UAA (Coomassie SDS-PAGE) (tRNA^Pyl/PylRS^AF) | stability by 1H-NMR [3] | also measured |
| --- | --- | --- | --- | --- | --- |
| N[C@@H](CCCCNC(=O)OC1/C=C/CCCCC1)C(=O)O (stereo in doubt) [Compound 3b, N-ε-((trans-Cyclooct-2-en-1-yloxy)carbonyl)-L-lysine] | 0.4 | more readily incorporated than compound 2 by about a factor of two | higher expression yields than the TCO |  |  |
| N[C@@H](CCCCNC(=O)OC1C#CCCCCC1)C(=O)O (stereo partly drawn) [Compound 5, N-ε-((Cyclooct-2-yn-1-yloxy)carbonyl)-L-lysine] |  |  |  |  | labeling of IR (confocal) (HEK293T cells; TCO* and SCO, Me-Tet-Cy5 then H-Tet-Atto532, 10 min): bright labeling of the IR in the plasma membrane for both channels; Reactivity with Me-Tet (in words) [1]: basically no detectable reactivity; also recorded: no substantial reactivity with Me-Tet |
| N[C@@H](CCCCNC(=O)OC1/C=C/CCCCC1)C(=O)O (stereo partly drawn) [Compound 3, N-ε-((trans-Cyclooct-2-en-1-yloxy)carbonyl)-L-lysine] | 0.4 | more readily incorporated than compound 2 by about a factor of two | higher expression yields than the TCO | remained un-changed | trans-form left after ten days [2]: more 3 (TCO*) was left in its trans-form than for 2 (TCO) and 4 (TCO^#) after 24 h; stability of covalent bond, FRET ratio over time [4]: consistent FRET values over time |
| N[C@@H](CCCCNC(=O)OC1C/C=C/CCCC1)C(=O)O (stereo partly drawn) [Compound 4, N-ε-((trans-Cyclooct-3-en-1-yloxy)carbonyl)-L-lysine] |  |  | higher expression yields than the TCO | remained un-changed |  |
| OC1CC2C=CC1C2 (centres unmarked) [5-norbornene-2-ol] |  |  |  |  | reaction with tetrazine Me-Tet-NH2 by 1H-NMR [5]: No new signals were detected |
| N[C@@H](CCCCNC(=O)OC1CC/C=C/CCC1)C(=O)O (stereo partly drawn) [Compound 2, N-ε-((trans-Cyclooct-4-en-1-yloxy)carbonyl)-L-lysine] |  |  |  | remained un-changed |  |
| N[C@@H](CCCCNC(=O)OCC1C2CCC#CCCC21)C(=O)O (some centres unmarked) [Compound 1] |  |  |  |  | labeling of IR (confocal) (HEK293T cells; TCO* pulse, BCN chase, Me-Tet-Cy5, quencher, H-Tet-Atto532): no signal in the Atto532 channel was observed; stability of covalent bond, FRET ratio over time [4]: consistent FRET values over time |
| N[C@@H](CCCCNC(=O)OC1/C=C/CCCCC1)C(=O)O (stereo in doubt) [Compound 3a, N-ε-((trans-Cyclooct-2-en-1-yloxy)carbonyl)-L-lysine] | 0.4 | more readily incorporated than compound 2 by about a factor of two | higher expression yields than the TCO |  |  |
